Literature values, collected in US8632986B2, “Methods and kits for detection of toxemia” (priority 2008, dated 2014).

Biological target: albumin (Homo sapiens, UniProt P02768)
Settings: general statement

Chain of albumin (P02768 25-609, species assumed): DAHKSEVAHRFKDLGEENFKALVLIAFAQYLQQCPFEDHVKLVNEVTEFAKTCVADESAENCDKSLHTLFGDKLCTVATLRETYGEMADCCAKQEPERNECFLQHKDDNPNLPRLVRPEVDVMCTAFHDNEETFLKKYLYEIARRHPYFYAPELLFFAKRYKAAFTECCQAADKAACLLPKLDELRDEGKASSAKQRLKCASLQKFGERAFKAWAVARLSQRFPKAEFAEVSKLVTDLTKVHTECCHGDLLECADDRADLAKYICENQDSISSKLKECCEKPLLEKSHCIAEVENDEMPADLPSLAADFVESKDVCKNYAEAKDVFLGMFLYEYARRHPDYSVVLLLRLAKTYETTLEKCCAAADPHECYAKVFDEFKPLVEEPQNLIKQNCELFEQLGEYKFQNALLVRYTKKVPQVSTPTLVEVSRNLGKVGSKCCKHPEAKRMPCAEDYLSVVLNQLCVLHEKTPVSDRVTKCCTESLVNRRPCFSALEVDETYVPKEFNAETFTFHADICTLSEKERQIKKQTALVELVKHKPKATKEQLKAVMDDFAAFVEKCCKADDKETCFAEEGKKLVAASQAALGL

For `CCCCCCCCCCCCCCCCCC(=O)O` [unlabeled stearic acid, stearic acid], the binding constant is listed as “about 10^9 mol^−1”.
